Like-named read-outs stand apart in the source and are kept apart here.
Test system: gastrischen Drüsenschläuche
Assay: 14C-aminopyrine accumulation in isolated gastric glands (inhibition of gastric acid secretion)
Assay type: cell-based, Kaninchen
Settings: read-out: IC50 Inhibition der stimulierten AP-Akkumulation
From the text: Methode: Die Hochdruckperfusion des […] wurde nach der Beschreibung von Berglindh und Obrink (1) und unter Anwendung einiger Modifikationen, wie sie an anderer Stelle berichtet werden (2), ausgeführt. Kaninchen (männlich und weiblich, 2 - 3 kg) wurden schmerzfrei unter Narkose durch zervikale Dislokation getötet und der Magen wie in der Literatur berichtet perfundiert (1). Die Mukosa des Magenfundus wurde mit einem Schaber entfernt und mittels einer Schere zerkleinert. Die so erhaltenen Mukosafragmente wurden mit_1 mg/ml Kollagenase in einem Medium bestehend aus 100 mM NaCl, 5 mM KCI, 0,5 mM NaH2PO4, 1 mM Na2HPO4, 1 mM CaCl2, 1,5 mM MgCl2, 20 mM NaHCO3, 20 mM HEPES, 2mg/ml Glukose und 1 mg/ml Kaninchenalbumin für 30 - 45 min bei 37°C behandelt, wobei der pH des Gemisches mit Tris-Puffer auf 7,4 eingestellt war. Die Drüsenschläuche (gastric glands) wurden durch ein Nylonnetz zur Entfernung grober Fragmente filtriert und 3 mal mit Inkubationsmedium gespült. Anschließend wurden die Drüsenschläuche im Medium in einer Konzentration von 2 - 4 mg Trockengewicht/ml suspendiert.
Als Maß für die Fähigkeit der gastrischen Drüsenschläuche zur Säurebildung wurde die Akkumulation von ^14C-Aminopyrin (^14C-AP) bestimmt (3). Hierzu wurden Proben von 1 ml Drüsenschlauchsuspension mit ^14C-AP (1 µM, 200 000 cpm) und der zu testenden Verbindung inkubiert und für 20 - 30 min bei 37°C in einem schüttelnden Wasserbad behandelt. Anschließend wurden Histamin (100 µM), dbcAMP (0.3 oder 1 mM) oder Carbachol (100 µM) zugegeben, gefolgt von einer zweiten Inkubationsdauer von 30 - 45 min.. Die Inkubation wurde anschließend beendet durch Zentrifugiren der Proben für eine halbe Minute. Die überstehende Flüssigkeit wurde entfernt und die erhaltenen pellets in 1 ml NaOH gelöst. Proben der Pellets und des Flüssigkeitsüberstands wurden im Szintillationszähler gemessen. Das AP-Verhältnis der intraglandulären und extraglandulären Radioaktivität wurde nach Sack und Spenney (4) berechnet. Alle Bestimmungen wurden dreifach durchgeführt.

## CCS(=O)(=O)N(C)[C@@H]1c2cc(C#N)ccc2OC(C)(C)[C@H]1O (relative stereo) [293B, trans-6-Cyano-4-(N-ethylsulfonyl-N-methylamino)-3-hydroxy-2,2-dimethyl-chroman]
After Carbachol stimulation (100 µM)
  IC50: 5 µM
After Histamin stimulation (100 µM)
  IC50: 20 µM
After dbcAMP stimulation (0.3 or 1 mM)
  IC50: 20 µM
